From PubChem BioAssay AID504313 (Emory University Molecular Libraries Screening Center, 2011) come the findings set out here.

Active and inactive are the calls of the source. How the calls were made is not given here. Some results are limits rather than exact numbers.

The experiment addresses X-box-binding protein 1 (Homo sapiens) (UniProt P17861). In words: XBP1 reporter suppression in cells – counter-screen, dose response (AID 504313).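 Further: CHO cells carrying an XBP1 reporter stimulated with tunicamycin; potency is for inhibition of the tunicamycin-induced reporter signal.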 The following applies: XBP1 reporter cell assay, percent of control.
With `O=C1NC[C@@H](Cc2cccc3ccccc23)N(CCc2cc(C(F)(F)F)cc(C(F)(F)F)c2)C1=O`, the IC50 entry was “inactive”.

As to `CCOc1cc(/C=C2/C(=O)ON=C2C)ccc1OCc1ccc(F)cc1`, the IC50 is > 10 µM (inactive).

On to `Cc1ccc(CNCc2cc3c(C(C)(C)C)nn(-c4ccccc4)c3[nH]c2=O)cc1`, for which the IC50 result is “inactive”.

Take `O=C(Nc1ccc(-c2nc3ccccc3s2)cc1)C1=COCCO1`: the IC50 entry was “inactive”.

For the compound `CCCCN=c1scc(-c2ccc3c(c2)NC(=O)CO3)n1N=C1CCCC1`, the IC50 result is “inactive”.

For the compound `COc1ccc(-c2cc(C3CCN(Cc4cccc(C(F)(F)F)c4)CC3)[nH]n2)cc1`, the IC50 entry was “inactive”.

For `O=C1C(=O)c2ccc(-c3ccccc3)cc2-c2ccccc21`, the IC50 was 3.26 µM.

Regarding `Cc1ccc(/C=C2\SC(=S)N(CCCC(=O)Nc3ccccn3)C2=O)cc1`, the IC50 was < 0.16 µM.

Consider `C=C(C)COc1ccc(-c2n[nH]c(C)c2-c2ccccc2OC)c(O)c1`, for which the IC50 was > 10 µM (inactive).

As to `CCOC(=O)c1cnc(-n2nc(C)cc2C)nc1NC1CCCCC1`, the IC50 result is “inactive”.

As to `CC(C)NC(=O)c1ccccc1NC(=O)/C=C/c1cccc([N+](=O)[O-])c1`, the IC50 is > 10 µM (inactive).

As for `COc1ccc(-c2[nH]ncc2N=Nc2cc(C)cc(C)c2)cc1`, the IC50 was > 10 µM (inactive).

Regarding `COc1ccc(NC(=O)c2cc3cccc(OC)c3oc2=Nc2ccc(C(=O)O)cc2)cc1OC`, the IC50 entry was “inactive”.

With `O=C(O)CSCC(=O)Nc1ccc(C2CCCCC2)cc1`, the IC50 result was “inactive”.

`CCNc1nc(Oc2c(Cl)cccc2Cl)cc(C(F)(F)F)n1`: the IC50 was > 10 µM (inactive).

In the case of `NC(=S)n1[nH]c(-c2ccc([N+](=O)[O-])cc2)c(N=Nc2cccc([N+](=O)[O-])c2)c1=O`, the IC50 result was “inactive”.

In the case of `COc1ccc(NC(=O)/C(Cl)=C(/Cl)S(=O)(=O)Cc2ccc(C)cc2)cn1`, the IC50 entry is “inactive”.

As for `O=C(Nc1ccc(S(=O)(=O)N2CCOCC2)cc1)c1ccc(CN2CCc3ccccc3C2)cc1`, the IC50 result is “inactive”.

Regarding `CCCc1cc(-c2nc(N)ncc2-c2ccc3c(c2)OCCCO3)c(O)cc1OC`, the IC50 is 5.01 µM.

Consider `COc1ccc(C(C(=O)NC2CCCCC2)N(C(=O)CCl)c2cccc(Cl)c2)cc1` (stereo not drawn), for which the IC50 result is “inactive”.

As to `CN(C(=O)CCl)C1CCCc2ccccc21` (stereo not drawn), the IC50 entry was “inactive”.

For the compound `O=C1NC(=S)S/C1=C\C=C\c1ccc([N+](=O)[O-])o1`, the IC50 entry was “inactive”.

Turning to `CCOC(=O)c1sc(N=Nc2c(O)[nH]c(=O)[nH]c2=O)c(C(=O)OCC)c1C`, the IC50 is > 10 µM (inactive).

Take `COCCn1cnc2c(c1=O)c1nc3ccccc3nc1n2/N=C/c1cccc(OC)c1`: the IC50 result was “inactive”.

As to `N#Cc1nccnc1S(=O)(=O)c1cccs1`, the IC50 result was “inactive”.

For the compound `CCCCNS(=O)(=O)c1ccc2nc(-c3cccnc3)cc(C(=O)NC3CCCC3)c2c1`, the IC50 is > 10 µM (inactive).

Consider `Cc1cccc(NC(=S)NC(NC(=O)OCc2ccccc2)C(Cl)(Cl)Cl)c1` (stereo not drawn), for which the IC50 was > 10 µM (inactive).

Turning to `CCOc1ccc(N(CC(=O)Nc2cccc(Cl)c2)S(=O)(=O)c2c(C)noc2C)cc1`, the IC50 entry was “inactive”.

Take `CC(C)(C)C(=O)Nc1ccc(-c2nc3ccccc3c(=O)o2)cc1`: the IC50 was 1.2 µM.

As for `Fc1cc(F)c2nc(Nc3nc4cc5c(cc4s3)OCO5)sc2c1`, the IC50 was > 10 µM (inactive).

As to `CCCCCCOC(=O)c1ccccc1N`, the IC50 was > 10 µM (inactive).

Regarding `O=C(Nc1ccccc1Cl)c1ccccc1Oc1ccc(C(F)(F)F)cc1[N+](=O)[O-]`, the IC50 result is “inactive”.

With `C=C(C(=O)c1ccccc1)C(C)C(=C)C(=O)c1ccccc1`, the IC50 entry was “inactive”.

Take `COc1ccc(CNc2oc(-c3cccc4ccccc34)nc2C#N)cc1`: the IC50 was > 10 µM (inactive).

For `Nc1cccc(Nc2nc(OC(C(F)(F)F)C(F)(F)F)nc(OC(C(F)(F)F)C(F)(F)F)n2)c1`, the IC50 is 2.09 µM.

Regarding `COC(=O)c1sc(-c2ccc(C(C)(C)C)cc2)cc1NC(=O)c1ccccc1C(=O)O`, the IC50 was > 10 µM (inactive).

As for `CCCCCCn1c(=O)c(C(=O)N/N=C/c2cccc(F)c2)c(O)c2ccccc21`, the IC50 result is “inactive”.

As to `CCc1ccc(/C=C2\SC(=S)N(CCCC(=O)Nc3ccccn3)C2=O)cc1`, the IC50 is < 0.16 µM.

On to `CNC(=O)c1nnsc1S(=O)(=O)c1ccc(Cl)cc1`, for which the IC50 entry is “inactive”.

Turning to `OC(CNCC(c1ccc(Cl)cc1Cl)c1c[nH]c2ccccc12)c1ccccc1` (stereo not drawn), the IC50 result was “inactive”.

As to `Cc1ccc(C)c(NC(=S)NC(NC(=O)/C=C/c2ccccc2)C(Cl)(Cl)Cl)c1` (stereo not drawn), the IC50 was > 10 µM (inactive).

On to `COc1ccc(C(=O)/C=C/C(=O)N(CC(=O)NC2CCCCC2)Cc2ccc(F)cc2)c(O)c1`, for which the IC50 is 2.25 µM.

Regarding `O=C(Cc1ccccc1)Nc1cccc(N2C(=O)C=CC2=O)c1`, the IC50 result is “inactive”.

In the case of `CC1=C/C(=N\OS(=O)(=O)c2ccccc2)C=CC1=O`, the IC50 is 2.9 µM.

As to `CCCCCCCn1c(=O)c(C(=O)Nc2cnccn2)c(O)c2ccccc21`, the IC50 is 2.1 µM.

On to `Cc1cc(C)c(S(=O)(=O)NCCn2c(C)cc3ccccc32)c(C)c1`, for which the IC50 was > 10 µM (inactive).

Take `CCOc1cc(NC(=O)CCl)c(OCC)cc1NC(=O)CCl`: the IC50 is > 10 µM (inactive).

With `CCOc1cc(CNc2ccc(O)cc2)ccc1OCc1ccc(Cl)cc1Cl`, the IC50 result is “inactive”.

On to `CC(C)(C)c1ccc(-c2n[nH]c(=S)n2C2CCCC2)cc1`, for which the IC50 was > 10 µM (inactive).

As for `O=C1CC(Sc2nnnn2-c2ccccc2)C(=O)N1c1cccc(Cl)c1` (stereo not drawn), the IC50 is > 10 µM (inactive).

With `CCCCCCOC(=O)Nc1ccc(S(=O)(=O)Nc2cccc([N+](=O)[O-])c2)cc1`, the IC50 is > 10 µM (inactive).

Regarding `CCNC(=S)N/N=C/c1cc(Br)cc(Br)c1OC`, the IC50 was > 10 µM (inactive).

`CCCCCCCC(=O)N/N=C/c1ccc(Br)cc1`: the IC50 was 4.47 µM.

With `COc1ccccc1-c1cc(C(F)(F)F)nc(S(=O)(=O)CCCC(=O)Nc2cc(C)on2)n1`, the IC50 result was “inactive”.

As to `O=S1(=O)C=C(Sc2nnc(-c3ccccc3)o2)c2ccccc21`, the IC50 result is “inactive”.

Take `Cc1ccc(NC(=O)O/N=C/c2c(C)nn(C(C)(C)C)c2C)cc1Cl`: the IC50 is < 0.16 µM.

Regarding `CC(C)(C)c1ccc(C(=O)NC(=S)NNC(=O)c2cccs2)cc1`, the IC50 is > 10 µM (inactive).

In the case of `Cc1ccc2c(C)nc(Nc3nc(CSc4nc5ccccc5[nH]4)cc(=O)[nH]3)nc2c1`, the IC50 entry was “inactive”.

With `CC(C)Oc1ccc(CNC(=S)N/N=C/c2ccc([N+](=O)[O-])cc2)cc1`, the IC50 is > 10 µM (inactive).

`CCCOC(=O)c1ccc(Oc2cn[nH]c2-c2ccc(OC)cc2O)cc1`: the IC50 is 4.82 µM.

On to `COc1ccccc1NC(=O)c1c(Nc2ccccc2C)sc(C(=O)Nc2cccc(Cl)c2)c1N`, for which the IC50 was > 10 µM (inactive).

For the compound `CCCCCCn1c(CN2CCCC(C)C2)nc2c1c(=O)n(C)c(=O)n2C` (stereo not drawn), the IC50 was > 10 µM (inactive).

`NC(N)=N/N=C/c1cn(-c2ccccc2)nc1-c1cccs1`: the IC50 is > 10 µM (inactive).

Take `C=CCn1c(CCNC(=O)c2ccc(Cl)c(Cl)c2)nnc1SCCOc1ccc(OC)cc1`: the IC50 is > 10 µM (inactive).

For the compound `Cc1ccccc1NC(=O)/C=C/c1ccc([N+](=O)[O-])s1`, the IC50 entry was “inactive”.

Regarding `CS(=O)(=O)c1ccc(S(=O)CC(=O)OCc2ccccc2)c([N+](=O)[O-])c1` (stereo not drawn), the IC50 result was “inactive”.

`FC(F)(F)c1ccc(/C=N/NC(=S)NC2CCCCC2)cc1`: the IC50 was > 10 µM (inactive).

As for `CC(C)(C)c1ccc(Oc2ccc(N)cc2)cc1`, the IC50 is < 0.16 µM.

As to `COc1ccccc1-c1cc(C(F)(F)F)nc(S(=O)(=O)CCCC(=O)Nc2cccnc2Cl)n1`, the IC50 was > 10 µM (inactive).

On to `CC(C)(C)OC(=O)CNC(=O)c1[nH]cnc1C(=O)Nc1ccc(Cl)cc1`, for which the IC50 result is “inactive”.

Turning to `CCOC(=O)c1ccc(NC(=O)c2nc[nH]c2C(=O)N[C@@H](C)C(=O)OC(C)(C)C)cc1`, the IC50 entry was “inactive”.

For the compound `CCn1cc([N+](=O)[O-])c(C(=O)N2N=C(c3ccc(Cl)c(Cl)c3)CC2c2ccccc2O)n1` (stereo not drawn), the IC50 is > 10 µM (inactive).

Take `CS(=O)(=O)c1nc(-c2ccco2)cc(C(F)(F)F)n1`: the IC50 entry was “inactive”.

For the compound `Cc1ccc2nc(NC(=O)CSCC(=O)OCC(=O)c3ccc(Br)cc3)sc2c1`, the IC50 is 3.51 µM.

As for `Cc1ccccc1CS(=O)(=O)c1nnc([C@H](Cc2ccccc2)NC(=O)OC(C)(C)C)o1`, the IC50 entry was “inactive”.

Consider `CCOc1ccc(/C=C/C2=Cc3c(sc(NC(=O)CSc4n[nH]c(N)n4)c3C#N)C(C)(C)C2)cc1`, for which the IC50 was > 10 µM (inactive).

Regarding `O=S(=O)(/C(=C/c1ccc(C(F)(F)F)cc1)c1nc2ccccc2[nH]1)c1ccccc1`, the IC50 is 2.22 µM.

Regarding `CCCCCCn1c(=O)c(C(=O)Nc2cnccn2)c(O)c2ccccc21`, the IC50 is 1.8 µM.

Regarding `Cc1ccc(/C=N/NC(=O)CCCOc2ccc(Cl)cc2Cl)cc1`, the IC50 is > 10 µM (inactive).

Consider `COc1ccc(NC(=O)c2cc(-c3cc(C)cc(C)c3O)n[nH]2)cc1Cl`, for which the IC50 was > 10 µM (inactive).

In the case of `COc1ccccc1-n1cc([C@@H]2C[C@H]3CN(c4ccccc4)C(=O)[C@]34CCCN24)cn1`, the IC50 was 0.74 µM.

As to `C[C@H](NC(=O)c1[nH]cnc1C(=O)Nc1ccc(Cl)cc1)C(=O)OC(C)(C)C`, the IC50 result is “inactive”.

Turning to `CCOC(=O)c1c(C(C)(C)C)oc2ccc(O)cc12`, the IC50 was > 10 µM (inactive).

On to `Cc1nc(Nc2ccc(F)cc2)[nH]c(=O)c1CCC(C)C`, for which the IC50 result was “inactive”.

`O=[N+]([O-])c1ccc(/C=N/N=C/c2ccc([N+](=O)[O-])o2)o1`: the IC50 was 2.59 µM.

`CCc1ccc(-c2nc(CSCC(=O)NCc3ccco3)c(C)o2)cc1`: the IC50 was < 0.16 µM.

On to `CC(C)=NOc1cc(NC(=O)CCl)cc([N+](=O)[O-])c1`, for which the IC50 result is “inactive”.

As to `CCOc1ccc(C2C=C(c3ccc(C)cc3)Nc3nnnn32)cc1` (stereo not drawn), the IC50 was > 10 µM (inactive).
